# Values quoted from earlier work, collected in patent EP0836475B1, “CONTROLLED RELEASE FORMULATIONS FOR POORLY SOLUBLE DRUGS” (ELAN CORPORATION, Plc, priority 1995, dated 1997).
# Conditions: ibuprofen from Lutrol-F68
smiles,measurement,value
CC(C)Cc1ccc(C(C)C(=O)O)cc1 (stereo not shown) [ibuprofen],T50 value of in vitro release,approximately 30 min.
